# Measured values as given in ChEMBL document CHEMBL1201862, “PubChem BioAssay data set” (2004).
#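 48-hour exposure; five concentrations; linearly interpolated endpoints. At the GI50, growth is halved.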 The source made the active and inactive calls. No stated cut-off is given here; in the data, active = GI50 up to about 1.1 µM and inactive = higher.
# Tests used:
# Experiment in all cases: growth of human tumour cells (NCI), 48 h
# UACC-62 = tested on: UACC-62
# 786-0 = tested on: 786-0
# RPMI-8226 = tested on: RPMI-8226
# OVCAR-3 = tested on: OVCAR-3
# HT-29 = tested on: HT-29
# DU-145 = tested on: DU-145
# SK-MEL-2 = tested on: SK-MEL-2
# A498 = tested on: A498
# HOP-62 = tested on: HOP-62
# SW-620 = tested on: SW-620
# SF-268 = tested on: SF-268
# UACC-257 = tested on: UACC-257
# Malme-3M = tested on: Malme-3M
# HCT-116 = tested on: HCT-116
# TK-10 = tested on: TK-10
# COLO 205 = tested on: COLO 205
# MDA-MB-231 = tested on: MDA-MB-231
# KM12 = tested on: KM12
# RXF 393 = tested on: RXF 393
# OVCAR-8 = tested on: OVCAR-8
SMILES,GI50 (UACC-62),GI50 (786-0),GI50 (RPMI-8226),GI50 (OVCAR-3),GI50 (HT-29),GI50 (DU-145),GI50 (SK-MEL-2),GI50 (A498),GI50 (HOP-62),GI50 (SW-620),GI50 (SF-268),GI50 (UACC-257),GI50 (Malme-3M),GI50 (HCT-116),GI50 (TK-10),GI50 (COLO 205),GI50 (MDA-MB-231),GI50 (KM12),GI50 (RXF 393),GI50 (OVCAR-8)
C/C=C/[P+](c1ccccc1)(c1ccccc1)c1ccccc1,1.71 µM (inactive),7.33 µM (inactive),0.0413 µM (active),0.54 µM (active),0.914 µM (active),1.15 µM (inactive),1.82 µM (inactive),6.58 µM (inactive),3.03 µM (inactive),0.48 µM (active),1.54 µM (inactive),0.295 µM (active),0.541 µM (active),0.433 µM (active),0.787 µM (active),0.101 µM (active),2.58 µM (inactive),0.277 µM (active),6.14 µM (inactive),0.426 µM (active)
Cc1nc2cc(/N=N/c3c(O)ccc4ccccc34)ccc2[nH]1,46.3 µM (inactive),22 µM (inactive),24.3 µM (inactive),25.2 µM (inactive),40.6 µM (inactive),36 µM (inactive),42.2 µM (inactive),> 55 µM (inactive),> 64.7 µM (inactive),32.4 µM (inactive),> 68.5 µM (inactive),24.8 µM (inactive),> 51.2 µM (inactive),23.3 µM (inactive),> 76.2 µM (inactive),29.5 µM (inactive),27.8 µM (inactive),25.4 µM (inactive),> 42.4 µM (inactive),27.4 µM (inactive)
CC(=O)NC(Cc1ccc(OP(=O)(OCc2ccc([N+](=O)[O-])o2)N(C)CCCCCl)cc1)C(=O)NC(C)c1ccc(OCC2CCCCC2)c(C(N)=O)c1 (stereo not given),2.31 µM (inactive),3.37 µM (inactive),1.72 µM (inactive),2.27 µM (inactive),2.25 µM (inactive),3.74 µM (inactive),3.08 µM (inactive),18.9 µM (inactive),9.66 µM (inactive),4.11 µM (inactive),2.24 µM (inactive),1.93 µM (inactive),1.88 µM (inactive),2.36 µM (inactive),11.4 µM (inactive),1.87 µM (inactive),2.05 µM (inactive),2.68 µM (inactive),2.02 µM (inactive),7.48 µM (inactive)
C=C1C(=O)O[C@@H]2/C=C(/C)[C@@H](OC(C)=O)C[C@@H](O)/C(C)=C\[C@@H](OC(=O)[C@]3(C)O[C@@H]3C)[C@@H]12,16.1 µM (inactive),4.57 µM (inactive),5.78 µM (inactive),11.6 µM (inactive),15.8 µM (inactive),14.6 µM (inactive),17.2 µM (inactive),18.1 µM (inactive),40.6 µM (inactive),5.98 µM (inactive),18.9 µM (inactive),15.7 µM (inactive),2.86 µM (inactive),3.89 µM (inactive),15.6 µM (inactive),6.89 µM (inactive),16.3 µM (inactive),17.5 µM (inactive),15.5 µM (inactive),13.1 µM (inactive)
Cc1cc2nc(C=C(C(F)(F)F)C(F)(F)F)sc2cc1C,1.85 µM (inactive),0.316 µM (active),0.055 µM (active),1.16 µM (inactive),0.929 µM (active),3.37 µM (inactive),1.73 µM (inactive),4.2 µM (inactive),3.05 µM (inactive),0.957 µM (active),3.05 µM (inactive),4.55 µM (inactive),1.44 µM (inactive),1.1 µM (active),2.34 µM (inactive),1.4 µM (inactive),2.82 µM (inactive),1.7 µM (inactive),1.16 µM (inactive),0.908 µM (active)
